Data set [1] relates to plasma proteins. Kind of data set: Ex vivo activity of STS (release of Pt from plasma proteins). The class given is in vitro ADME, human. Conditions: for Percentage of plasma Pt recovered in pUF after STS incubation: 750 μL plasma + 25 μL 250 g/L STS. As for the experimental part:
Therefore, 750 μL of plasma were incubated with 25 μL of a 250 g/L STS solution. As control, 750 μL of plasma were incubated with 25 μL of water. After incubation, pUF was prepared and Pt concentrations of the STS incubated samples and control samples were compared. Protein concentrations in the ultrafiltrates were analysed using a 2-D Quant Kit (GE healthcare Bio-Sciences AB, Uppsala, Sweden).

A further data set concerns calf thymus DNA. The data set can be described thus: Assessment of DNA binding activity of Pt in pUF (ex vivo incubation). Conditions: for DNA binding of Pt in patient pUF samples: pUF of two treated patients per drug; for DNA binding of Pt in patient pUF samples / Added Pt bound to DNA: five-day incubation with calf thymus DNA; for Added Pt bound to DNA: parent compound added to pUF of healthy volunteers; for Total binding capacity of equivalent concentrations of parent compound recovered (average): patient pUF, more than 8 months after end of treatment. As for the experimental part: The latter was done to assess the binding capacity of the parent compounds at concentrations in the same range as the patients samples. After a five-day incubation to achieve a maximal Pt-DNA binding, the DNA was precipitated, washed and dissolved in water as described by Brouwers et al. After hydrolysis, the Pt-DNA binding was assessed.

A short description of data set [2]: Renal function (MDRD GFR) at chemotherapy and at follow-up. In kind it is in vivo, human. As for the experimental part: Differences between Pt levels of cisplatin and oxaliplatin treated patients, control cancer patients, and healthy controls were evaluated using the Mann-Whitney U test. The Wilcoxon signed rank test was used to test the difference between the renal function at the time of chemotherapy and at follow-up. Correlations between plasma and pUF level of Pt treated patients were evaluated by the Pearson correlation coefficient. SPSS was used to perform these tests.
Pt levels were proportional to the cumulative dose. […] An association between GSTT1,GSTM1, and GSTP1 genotypes and Pt levels could not be established. The effect of the renal function on Pt levels was evaluated using the glomerular filtration rate (GFR) which was calculated with the 'Modification of Diet in Renal Disease (MDRD)'-formula [21]. […] Figure 3 and 4 show the MDRD GFR for patients at the start of their chemotherapy treatment and at follow-up. […] Long-term plasma Pt concentrations were lower when the GFR at the time of chemotherapy was higher.

Data set [3] is described as follows: Effects of determinants on in vivo plasma Pt levels (NONMEM modelling). As to the method:
Additionally, serum creatinine was assessed at the time of study.
Possible relationships between determinants and Pt levels were evaluated using non-linear mixed effects modeling using NONMEM software (Version V1) (GloboMax LLC, Ellicott city, MD, USA). The first order conditional estimation method was used throughout. It was assumed that, due to the long follow-up, the treatment period was negligible compared to the follow-up time. The significance of established relationships was assessed using the likelihood ratio test.

Data set [4] is described as follows: Long-term Pt levels in plasma ultrafiltrate (pUF) of treated patients (ICP-MS). Conditions: pUF prepared after sampling. The class given is in vivo, human.
Description: Whole blood samples for Pt analysis were collected in 10 mL EDTA containing tubes (Becton Dickinson Vacutainer Systems, Plymouth, UK). […] Plasma was obtained by centrifuging the whole blood samples for 15 min (1,000 g, 4°C). […] PUF was obtained by centrifuging the plasma fraction through 3 and 30 kDa cut-off ultrafiltrate filter (Centriplus Millipore Corporation, Bedford, MA, USA) for 30 min (1,000 g, 20°C). […] All samples were stored at -20°C until analysis.
Pt analyses were performed using an ICP-MS and a validated method described previously [15]. Pt levels were assessed in plasma, pUF, and bound to DNA in PBMCs.
For data set [5], the system named is plasma proteins. The data set can be described thus: Ex vivo assessment of protein binding capacity of Pt in pUF (plasma storage). The class given is in vitro ADME, human. As for the experimental part:
Pt concentrations analysed in pUF prepared after storage were compared to Pt concentrations analysed in pUF which was prepared immediately after blood sampling. Additionally, plasma samples were reanalyzed to assess whether or not Pt concentrations in plasma were reduced during storage due to adsorption to the tubes.

A short description of data set [6]: Long-term Pt levels in plasma of treated patients (ICP-MS). The class given is in vivo. Conditions: patients treated 8 to 75 months before.
Description: Whole blood samples for Pt analysis were collected in 10 mL EDTA containing tubes (Becton Dickinson Vacutainer Systems, Plymouth, UK). EDTA was preferred above heparin because the fraction peripheral blood mononuclear cells (PBMCs) could be isolated easier from EDTA plasma. […] Plasma was obtained by centrifuging the whole blood samples for 15 min (1,000 g, 4°C). The fraction containing PBMCs was isolated from the whole blood sample using the method described by Pluim et al [13]. PUF was obtained by centrifuging the plasma fraction through 3 and 30 kDa cut-off ultrafiltrate filter (Centriplus Millipore Corporation, Bedford, MA, USA) for 30 min (1,000 g, 20°C). […] All samples were stored at -20°C until analysis.
Pt analyses were performed using an ICP-MS and a validated method described previously [15]. Pt levels were assessed in plasma, pUF, and bound to DNA in PBMCs. DNA was isolated from PBMCs using a method described by Pluim et al [13]. Before ICP-MS analysis, the DNA was hydrolysed in 1% (v/v) HNO3 solution at 70°C. The limit of quantification (LLOQ) of the method was 20 ng/L for plasma, 7.5 ng/L for pUF, and the absolute sensitivity for Pt bound to DNA was 0.75 pg Pt (7.5 fg Pt per μg DNA when using 100 μg DNA). The LLOQs were determined on the basis of five times the noise in blank matrix solutions.
The mark [7] stands for this setting: individual patient plasma samples.
Where [8] appears, read: plasma stored at -30°C for 144-278 days.
Setting [9] is: two-compartment model, per compound.

“And” between values parts separate entries of the source, which are not always exact repeats. Equal entries are not always repeated.

`N.N.[Cl][Pt][Cl]` [Cisplatin, cisplatin]: in the data set with plasma proteins [1] (setting [7]), the “Factor increase of Pt in pUF after STS incubation” value is 1.4-fold and 2.7-fold and 2.3-fold and 2.9-fold; the “Percentage of plasma Pt recovered in pUF after STS incubation” value was 17.5 and 34.9 and 30.7 and 36.6. In the data set with calf thymus DNA, the “DNA binding of Pt in patient pUF samples” value was 1.8% and 2.4%; the “Added Pt bound to DNA” value was 21%; the “Total binding capacity of equivalent concentrations of parent compound recovered (average)” value is recorded as 10%. In data set [2] (in vivo), the “GFR at the time of the current study (follow-up)” value is recorded as 55 mL/min/1.73 m^2 and the “Median GFR before start of the Pt chemotherapy” value is reported as 78 mL/min/1.73 m^2.
Regarding `O=S([O-])([O-])=S.[Na+].[Na+]` [STS, sodium thiosulfate], the “Reduction in long-term plasma Pt levels” value in data set [3] (STS co-administration with intra-arterial cisplatin, p < 0.001) was 71%.
For the compound `O=C1[O][Pt]2([NH][C@@H]3CCCC[C@H]3[NH]2)[O]C1=O` [Oxaliplatin, oxaliplatin], the “Percentage of plasma Pt recovered in pUF (average)” value in data set [4] is given as 24.2%. Moreover, in the data set with plasma proteins [1] (setting [7]), the “Factor increase of Pt in pUF after STS incubation” value was 1.5-fold and 1.4-fold and 2.0-fold; the “Percentage of plasma Pt recovered in pUF after STS incubation” value is 40.4 and 46.2 and 39.5 and 38.7. Moreover, in the data set with plasma proteins [1] (individual patient plasma samples, control incubation with water), the “Percentage of plasma Pt recovered in pUF” value was 27.2 and 32.2 and 20 and 26.5. Also, the “Increase in Pt pUF concentrations in samples prepared from STS treated plasma” value in the data set with plasma proteins [1] (over four samples per drug) was 1.6 fold. The “Percentage of plasma Pt recovered in pUF after storage” value in the data set with plasma proteins [5] (individual patient samples, 144-278 days of storage at -30°C) was 25.2 and 21.2 and 16 and 15.8. For the same compound, in the data set on plasma proteins [5] (individual patient samples, pUF prepared immediately after blood sampling), the “Percentage of plasma Pt recovered in pUF before storage” value is 28.2 and 27.8 and 25.9 and 22.9. In addition, in the data set on plasma proteins [5] (setting [8]), the “Decrease in Pt concentrations in pUF after storage (average)” value turned out to be 26% and the “Plasma Pt concentrations over storage time” value was “remained constant over time”. In data set [3] (setting [9]), the “First elimination half-life (t1/2) of plasma Pt” value turned out to be 1.37 months and the “Second elimination half-life (t1/2) of plasma Pt” value is 535 months. Further, in the data set with calf thymus DNA, the “DNA binding of Pt in patient pUF samples” value was 0.78% and 1.1%; the “Added Pt bound to DNA” value was 21%; the “Total binding capacity of equivalent concentrations of parent compound recovered (average)” value amounted to 4.3%. Also, in data set [2] (MDRD formula), the “GFR at the time of the current study (follow-up)” value is recorded as 61 mL/min/1.73 m^2 and the “Median GFR before start of the Pt chemotherapy” value was 65 mL/min/1.73 m^2. In data set [6], the “Plasma Pt levels relative to mean level of unexposed controls” value was greater than 30 fold.

Values taken from PMC2559818 (BMC Clinical Pharmacology, 2008).
